Test results: paper PMC6152131, “Pharmacokinetic Study of Biotransformation Products from an Anxiolytic Fraction of Tilia americana” (Molecules : A Journal of Synthetic Chemistry and Natural …, 2017)

What was measured:
[1] = Stability of flavonoids and biotransformation products in mouse plasma under different handling conditions; type: in vitro ADME, mice; conditions: for Accuracy Bias 0 h / Observed Conc. 0 h / Accuracy Bias 8 h / Observed Conc. 8 h / Accuracy Bias 24 h / Observed Conc. 24 h: room temperature (25 °C); for Observed Conc. 0 h / Observed Conc. 8 h / Observed Conc. 24 h / Observed Conc. Autosampler (4 °C; 8 h) / Observed Conc. Long-term (−70 °C; 1 month): n = 6; for Accuracy Bias Autosampler (4 °C; 8 h) / Accuracy Bias Long-term (−70°C; 1 month) / Observed Conc. Autosampler (4 °C; 8 h) / Observed Conc. Long-term (−70 °C; 1 month): storage stability
Description: (§1) Plasma dried pulverized samples were extracted with methanol (HPLC grade, Merck). The extracts were filtered with Teflon membrane dimensions 0.45 μm by 13 mm (Millex®-LCR); 20 μL of each filtered sample was injected into the HPLC equipment. The measurements were performed in a (Waters corporation, Milford, CT, USA) 2695 HPLC with a diode array detector (Waters 2996) and processed with the Empower Pro 1.0 software. A Chromolith Performance® RP-18e 100 × 4.6 mm (Merck KGaA, Darmstadt, Germany) was used. The mobile phase consisted of a mixture of acetonitrile and water with the proportion 55:45 and a flow rate of 1 mL/min. The concentrations of the flavonoids and the biotransformation products were obtained by comparison with a pre-built calibration curve at λ = 220 nm.
[…] The investigation enclosed here expected manipulation conditions during all the sample storage and process periods, which included the stability data from the freeze/thaw, bench-top, autosampler, and long–term stability tests.
For all stability studies, fresh QC samples were evaluated by using a freshly prepared standard curve for the measurements. The concentrations obtained from all the stability studies were compared with the fresh QC samples, and the percentage concentration deviation was calculated. The analytes were considered stable in the mouse plasma when the concentration difference between the freshly prepared samples and the stability samples was less than 15%.

[2] = Plasma concentration after a single oral dose of the anxiolytic fraction (HPLC); type: in vivo, ICR mice; conditions: mouse, plasma, ICR mice, n = 10
Description: Eleven groups of ten animals each were randomly formed. All animals were orally administered with 200 mg/kg of the active fraction. Animals were anaesthetized with ether, and blood samples were obtained from the retroorbital sinus with a heparinized capillary, each group was examined at different times (0, 5, 10, 15, 30, 60, 120, 240, 480, 720, and 1440 min) after the active fraction was administered. […] Then the plasma samples were frozen and lyophilized. The dry plasma was subsequently used to extract and measure the concentration of the flavonoids and biotransformation products.
as §1
(§2) To evaluate the suitability of the assay for the pharmacokinetic studies, 200 mg/kg of the active fraction was orally administered to the animals. Ten animals were used in each group at different times (0, 5, 10, 15, 30, 60, 120, 240, 480, 720, and 1440 min). Pharmacokinetic calculations were performed using the observed data. All data was subsequently processed using the PKSolver add-in program for Microsoft Excel written in Visual Basic for Applications. All values obtained were expressed in mean ± standard deviation.

[3] = Pharmacokinetic analysis, two-compartment model (PKSolver); type: in vivo, ICR mice
Description: The data shown in Table 2 were applied to the program PKSolver. After a single oral administration of 200 mg/kg of the anxiolitic fraction of T. americana, the behavior of the concentration-time data allowed us to determine the main pharmacokinetic parameters under a two-compartment model (Table 3), and the same program provided the graphical behavior of the variables and the adjustment to the two-compartment model.
as §2
For the pharmacokinetic assay, the selection was made either from a one-compartment or a two-compartment model, with the use of both the Akaike information criterion (AIC) and the Schwarz criterion (SC). Using these two criteria, one can select which model is more suited to being adjusted, to the point where it reaches the lowest values of the AIC or SC criteria, which means that the chosen model is more parsimonious (less parameters required) and best fits the data (low error prediction).

[4] = high nominal conc. (7.00; 44.37; 4.50; 31.25 µg/mL)
[5] = low nominal conc. (1.75; 11.02; 1.12; 1.95 µg/mL)
[6] = medium nominal conc. (3.50; 22.18; 2.24; 7.81 µg/mL)
[7] = mouse, oral 200 mg/kg anxiolytic fraction, ICR mice plasma, two-compartment model
[8] = oral 200 mg/kg anxiolytic fraction, ICR mice plasma, two-compartment model
[9] = oral 200 mg/kg anxiolytic fraction, ICR mice plasma, two-compartment model, n = 10

## O=C(O)Cc1ccc(O)c(O)c1 [DOPAC, 3,4-dihydroxyphenylacetic acid]
[1]; high nominal conc.
  Accuracy Bias 0 h: 0.26%
  Accuracy Bias 8 h: 0.25%
  Accuracy Bias 24 h: 0.19%
  Accuracy Bias Autosampler (4 °C; 8 h): 2.23%
  Accuracy Bias Long-term (−70°C; 1 month): 2.11%
[1]; high nominal conc. (rutin 7.00; quercetin glucoside, quercitrin, tiliroside 44.37; kaempferol 4.50; m-HPAA, p-HPAA, DOPAC 31.25 µg/mL)
  Observed Conc. 0 h: 31.61 ± 0.26 µg/mL
[1]; low nominal conc.
  Accuracy Bias 0 h: 0.02%
  Accuracy Bias 8 h: 0.03%
  Accuracy Bias 24 h: 0.03%
  Accuracy Bias Autosampler (4 °C; 8 h): 0.88%
  Accuracy Bias Long-term (−70°C; 1 month): 1.15%
[1]; low nominal conc. (rutin 1.75; quercetin glucoside, quercitrin, tiliroside 11.02; kaempferol 1.12; m-HPAA, p-HPAA, DOPAC 1.95 µg/mL)
  Observed Conc. 0 h: 1.98 ± 0.020 µg/mL
[1]; medium nominal conc.
  Accuracy Bias 0 h: 0.03%
  Accuracy Bias 8 h: 0.03%
  Accuracy Bias 24 h: 0.02%
  Accuracy Bias Autosampler (4 °C; 8 h): 0.38%
  Accuracy Bias Long-term (−70°C; 1 month): 0.58%
[1]; medium nominal conc. (rutin 3.50; quercetin glucoside, quercitrin, tiliroside 22.18; kaempferol 2.24; m-HPAA, p-HPAA, DOPAC 7.81 µg/mL)
  Observed Conc. 0 h: 7.85 ± 0.032 µg/mL
[1]; [4]
  Observed Conc. 8 h: 31.64 ± 0.24 µg/mL
  Observed Conc. 24 h: 31.53 ± 0.19 µg/mL
  Observed Conc. Autosampler (4 °C; 8 h): 31.61 ± 0.19 µg/mL
  Observed Conc. Long-term (−70 °C; 1 month): 31.53 ± 0.25 µg/mL
[1]; [5]
  Observed Conc. 8 h: 1.92 ± 0.02 µg/mL
  Observed Conc. 24 h: 1.91 ± 0.03 µg/mL
  Observed Conc. Autosampler (4 °C; 8 h): 1.91 ± 0.03 µg/mL
  Observed Conc. Long-term (−70 °C; 1 month): 1.99 ± 0.03 µg/mL
[1]; [6]
  Observed Conc. 8 h: 7.86 ± 0.03 µg/mL
  Observed Conc. 24 h: 7.78 ± 0.02 µg/mL
  Observed Conc. Autosampler (4 °C; 8 h): 7.78 ± 0.02 µg/mL
  Observed Conc. Long-term (−70 °C; 1 month): 7.85 ± 0.03 µg/mL
[2]; 5 min after single oral dose of 200 mg/kg of the anxiolytic fraction, ND = not detected
  concentration at 5 min: 6600 ± 430 ng/mL
[2]; 10 min after single oral dose of 200 mg/kg of the anxiolytic fraction
  concentration at 10 min: 6430 ± 350 ng/mL
[2]; 15 min after single oral dose of 200 mg/kg of the anxiolytic fraction
  concentration at 15 min: 7730 ± 610 ng/mL
[2]; 30 min after single oral dose of 200 mg/kg of the anxiolytic fraction
  concentration at 30 min: 7170 ± 520 ng/mL
[2]; 60 min after single oral dose of 200 mg/kg of the anxiolytic fraction
  concentration at 60 min: 6880 ± 430 ng/mL
[2]; 120 min after single oral dose of 200 mg/kg of the anxiolytic fraction
  concentration at 120 min: 6340 ± 410 ng/mL
[2]; 240 min after single oral dose of 200 mg/kg of the anxiolytic fraction
  concentration at 240 min: 6260 ± 320 ng/mL
[2]; 480 min after single oral dose of 200 mg/kg of the anxiolytic fraction
  concentration at 480 min: 6100 ± 340 ng/mL
[2]; 720 min after single oral dose of 200 mg/kg of the anxiolytic fraction
  concentration at 720 min: 6010 ± 540 ng/mL
[2]; 1440 min after single oral dose of 200 mg/kg of the anxiolytic fraction
  concentration at 1440 min: 5930 ± 490 ng/mL
[3]; after oral administration
  CL/F, times lower than m-HPAA: 30 times
  CL/F, times lower than p-HPAA: 20 times
[3]; [7]
  AUC(0-inf): 3850 µg·h/mL
  Cmax: 7180 ng/mL
  Tmax: 0.215 h
[3]; mouse, oral 200 mg/kg anxiolytic fraction, ICR mice plasma, two-compartment model, read-out: AUC0→1440 (converted)
  AUC(0-t): 146 µg·h/mL
[3]; mouse, oral 200 mg/kg anxiolytic fraction, ICR mice plasma, two-compartment model, read-out: MRT (mean residence time) (converted)
  MRT: 625 h
[3]; mouse, oral 200 mg/kg anxiolytic fraction, ICR mice plasma, two-compartment model, read-out: k10 (apparent first-order elimination rate constant from the central compartment) (converted)
  k el: 5.3e-07 s⁻¹
[3]; mouse, oral 200 mg/kg anxiolytic fraction, ICR mice plasma, two-compartment model, read-out: t1/2β
  half-life: 434 h
[3]; [8]
  CL/F (apparent clearance): 0.0008 (mg/Kg)/(μg/mL)/min
  V/F (apparent volume of distribution): 27.21 (mg/Kg)/(µg/mL)
  k12 (transfer rate constant central to peripheral compartment): 0.002 min⁻¹
  k21 (transfer rate constant peripheral to central compartment): 0.0096 min⁻¹
  ka (apparent first-order absorption rate constant): 0.43 min⁻¹
  t1/2ka (absorption half time): 1.61 min
  t1/2α: 0.9992 h
  α: 0.01 min⁻¹
  β: 2.66e-05 min⁻¹
[3]; [9]
  A (plasma concentration coefficient, central compartment): 1.23 µg/mL
  B (plasma concentration coefficient, peripheral compartment): 6.16 µg/mL
[3]; two-compartment model
  index: relation between rate constants of k12 with respect to k21: 0.20
